Data published in patent publication US20080260834A1, “VITAMIN D3 ANALOG LOADED POLYMER FORMULATIONS FOR CANCER AND NEURODEGENERATIVE DISORDERS” (priority 2002, published 2008).
Where two headings read alike, the source gives them in different places.

Experiments:
[1] = Hypercalcemic toxicity of wafers, intraflank vs intracranial; type: in vivo,  mice; conditions: 5 mg pCPP:SA wafer loaded 0.1%; for weight loss: 7 days; for blood ionized calcium levels: day 7
From the text: Animal weights were monitored daily and blood was collected for quantitative ionized calcium analysis via cardiac puncture on day 7 post-implantation.

B16 (malignant melanoma) = test: In vitro proliferation assay, B16; type: cell-based, murine
Experimental: (§1) All cell lines were grown and propagated in RPMI medium at 37° C. in 5% CO2. Cultured cells were trypsinized and plated in triplicate at 10,000 cells/well in Falcon 24 well tissue culture plates. […] When control wells neared confluence, cell number was determined for each well as an average of two readings on a ZM Coulter Counter Results are expressed as the average cell number for each drug treatment group divided by the average cell number for the drug free control group (designated as % OF CONTROL) vs. the concentration of drug or analog.

[2] = test system: EMT6 (breast cell carcinoma); test: In vitro proliferation assay, EMT6; type: cell-based, murine
Experimental: as §1

B16 melanoma cells = test: Exposure time dependence study, B16; type: cell-based, murine; conditions: 10 μM; exposure 1, 2, 10, 24, 96 hours; counted at 96 hours
Experimental: In a series of exposure time dependence studies, B16 melanoma cells were trypsinized, suspended, and plated as before. […] Then at 1, 2, 10, 24, and 96 hours, the drug containing media was removed and replaced with fresh media containing only solvent. […] At the 96 hour time point, all groups were trypsinized and cell number was determined as before.

[3] = Calcemic activity, daily intraperitoneal injections in mice; type: in vivo, C57/B16 mice; conditions: for weight loss: 7 days; for blood ionized calcium: day 7
Experimental: Twenty-seven C57/B16 mice (n=3 per group), received daily intraperitoneal injections solution containing one of the three drugs at on of the following doses: […] (corresponding to 0.02, 0.2, or 2 mg/day respectively). Nine animals received daily intraperitoneal injections of solvent only to serve as control. Animal weights were monitored daily at the time of injection. On day 7, all animals were sacrificed and blood was collected via cardiac puncture and quantitatively analyzed for ionized calcium content at the Critical Care Lab at Johns Hopkins Hospital.

CT26 (colon carcinoma) = test: In vitro proliferation assay, CT26; type: cell-based, murine; conditions: at 1000 nM against CT26 (p<0.01, data not shown)
Experimental: as §1

[4] = cited from earlier work
[5] = test system: RENCA (renal cell carcinoma); test: In vitro proliferation assay, RENCA; type: cell-based, murine
Experimental: as §1

C=C1/C(=C\C=C2/CCCC3(C)[C@@H]([C@H](C)CCCC(C)(C)O)CC[C@@H]23)C[C@@H](O)CC1O (some centres unmarked) [1,25 D3, 1,25-Dihydroxyvitamin D3]
weight loss ([1]; intracranial): substantial weight loss
blood ionized calcium levels ([1]; intracranial): dramatic rises in blood ionized calcium levels
weight loss ([1]; intraflank): substantial weight loss
blood ionized calcium levels ([1]; intraflank): dramatic rises in blood ionized calcium levels
EC50 (B16 (malignant melanoma); Mus musculus): 15 nM
antiproliferative activity (B16 (malignant melanoma); at 10 nM against B16 (p<0.03)): significant antiproliferative activity
EC50 ([2]; Mus musculus, EMT6): 160 nM
antiproliferative activity ([2]; at 100 nM against EMT6 (p<0.01)): significant antiproliferative activity
exposure time dependence of antiproliferative activity (B16 melanoma cells): exposure time dependent
weight loss ([3]; 1 mg/kg/day i.p.): substantial weight loss
blood ionized calcium ([3]; 1 mg/kg/day i.p.): dramatic rises in blood ionized calcium levels
weight loss ([3]; 10 mg/kg/day i.p.): substantial weight loss
blood ionized calcium ([3]; 10 mg/kg/day i.p.): dramatic rises in blood ionized calcium levels
condition of the animals ([3]; 100 mg/kg/day i.p.): severely compromised
antiproliferative activity (CT26 (colon carcinoma)): significant antiproliferative activity
serum calcium ([4]; 60 ng/day i.c.v., after 6 days): rise in serum calcium
weight loss ([4]; 120 ng/day i.c.v.): weight loss was observed
condition of the animals ([4]; 240 ng/day i.c.v., by day 6): severely compromised
EC50 ([5]; Mus musculus, Renca): 153 nM
antiproliferative activity ([5]; at 10 nM against RENCA (p<0.03)): significant antiproliferative activity
